Assay results as given in US12077503B2, “Substituted cyclic amides and their use as herbicides” (FMC CORPORATION, priority 2015, dated 2024).

Tests used:
Type in all cases: in vivo
[1] = test system: ragweed (common ragweed, Ambrosia elatior); assay: Test A postemergence; settings: Ambrosia artemisiifolia, post-emergence, 240 h, read-out: Plant response rating, Ragweed; for pest or weed control at 125 g/ha: 125 g ai/ha, postemergence, visual injury after approximately 10 d, 0 to 100 scale (0 no effect, 100 complete control)
Method in brief: (§1)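 Preemergence soil spray on seeded pots or post-emergence spray on 1–2 leaf plants, in loam–sand blend. Greenhouse ~10 d. Visual rating 0–100 against untreated plants.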

[2] = test system: Kochia (Kochia scoparia); assay: Test A postemergence; settings: Bassia scoparia, post-emergence, 240 h, read-out: Plant response rating, Kochia; for pest or weed control at 125 g/ha: 125 g ai/ha, postemergence, visual injury after approximately 10 d, 0 to 100 scale (0 no effect, 100 complete control)
Method in brief: as §1

[3] = test system: Galium (catchweed bedstraw, Galium aparine); assay: Test A postemergence; settings: Galium, post-emergence, 240 h, read-out: Plant response rating, Galium; for pest or weed control at 125 g/ha: 125 g ai/ha, postemergence, visual injury after approximately 10 d, 0 to 100 scale (0 no effect, 100 complete control)
Method in brief: as §1

[4] = test system: blackgrass (Alopecurus myosuroides); assay: Test A postemergence; settings: Alopecurus myosuroides, post-emergence, 240 h, read-out: Plant response rating, Blackgrass; for pest or weed control at 125 g/ha: 125 g ai/ha, postemergence, visual injury after approximately 10 d, 0 to 100 scale (0 no effect, 100 complete control)
Method in brief: as §1

[5] = test system: giant foxtail (Setaria faberii); assay: Test A postemergence; settings: Setaria faberi, post-emergence, 240 h, read-out: Plant response rating, Foxtail, Giant; for pest or weed control at 125 g/ha: 125 g ai/ha, postemergence, visual injury after approximately 10 d, 0 to 100 scale (0 no effect, 100 complete control)
Method in brief: as §1

[6] = test system: ryegrass, Italian (Italian ryegrass, Lolium multiflorum); assay: Test A postemergence; settings: Lolium multiflorum, post-emergence, 240 h, read-out: Plant response rating, Ryegrass, Italian; for pest or weed control at 125 g/ha: 125 g ai/ha, postemergence, visual injury after approximately 10 d, 0 to 100 scale (0 no effect, 100 complete control)
Method in brief: as §1

[7] = test system: corn (Zea mays); assay: Test A postemergence; settings: Zea mays, post-emergence, 240 h; for Corn plant response rating (crop injury, 0 = no effect, 100 = complete kill) at 125 g/ha: 125 g ai/ha, postemergence, visual injury after approximately 10 d, 0 to 100 scale (0 no effect, 100 complete control)
Method in brief: as §1

[8] = test system: wheat (Triticum aestivum); assay: Test A postemergence; settings: Triticum aestivum, post-emergence, 240 h, read-out: Plant response rating, Wheat; for plant injury at 125 g/ha: 125 g ai/ha, postemergence, visual injury after approximately 10 d, 0 to 100 scale (0 no effect, 100 complete control)
Method in brief: as §1

[9] = test system: barnyardgrass (Echinochloa crus-galli); assay: Test A postemergence; settings: Echinochloa crus-galli, post-emergence, 240 h, read-out: Plant response rating, Barnyardgrass; for pest or weed control at 125 g/ha: 125 g ai/ha, postemergence, visual injury after approximately 10 d, 0 to 100 scale (0 no effect, 100 complete control)
Method in brief: as §1

[10] = test system: pigweed (Amaranthus retroflexus); assay: Test A postemergence; settings: Amaranthus retroflexus, post-emergence, 240 h, read-out: Plant response rating, Pigweed; for pest or weed control at 125 g/ha: 125 g ai/ha, postemergence, visual injury after approximately 10 d, 0 to 100 scale (0 no effect, 100 complete control)
Method in brief: as §1

[11] = test system: ragweed (common ragweed, Ambrosia elatior); assay: Test A preemergence; settings: Ambrosia artemisiifolia, pre-emergence, 240 h; for pest or weed control at 125 g/ha: 125 g ai/ha, preemergence, visual rating after approx. 10 d, 0 to 100 scale where 0 is no effect and 100 is complete control; for pest or weed control at 500 g/ha: 500 g ai/ha, visual injury vs untreated controls after approximately 10 d, read-out: Ragweed plant response rating (0 to 100 scale where 0 is no effect and 100 is complete control)
Method in brief: as §1

[12] = test system: Kochia (Kochia scoparia); assay: Test A preemergence; settings: Bassia scoparia, pre-emergence, 240 h; for pest or weed control at 125 g/ha: 125 g ai/ha, preemergence, visual rating after approx. 10 d, 0 to 100 scale where 0 is no effect and 100 is complete control; for pest or weed control at 500 g/ha: 500 g ai/ha, visual injury vs untreated controls after approximately 10 d, read-out: Kochia plant response rating (0 to 100 scale where 0 is no effect and 100 is complete control)
Method in brief: as §1

[13] = test system: ryegrass, Italian (Italian ryegrass, Lolium multiflorum); assay: Test A preemergence; settings: Lolium multiflorum, pre-emergence, 240 h; for pest or weed control at 125 g/ha: 125 g ai/ha, preemergence, visual rating after approx. 10 d, 0 to 100 scale where 0 is no effect and 100 is complete control; for pest or weed control at 500 g/ha: 500 g ai/ha, visual injury vs untreated controls after approximately 10 d, read-out: Ryegrass, Italian plant response rating (0 to 100 scale where 0 is no effect and 100 is complete control)
Method in brief: as §1

[14] = test system: barnyardgrass (Echinochloa crus-galli); assay: Test A preemergence; settings: Echinochloa crus-galli, pre-emergence, 240 h; for pest or weed control at 125 g/ha: 125 g ai/ha, preemergence, visual rating after approx. 10 d, 0 to 100 scale where 0 is no effect and 100 is complete control; for pest or weed control at 500 g/ha: 500 g ai/ha, visual injury vs untreated controls after approximately 10 d, read-out: Barnyardgrass plant response rating (0 to 100 scale where 0 is no effect and 100 is complete control)
Method in brief: as §1

[15] = test system: pigweed (Amaranthus retroflexus); assay: Test A preemergence; settings: Amaranthus retroflexus, pre-emergence, 240 h; for pest or weed control at 125 g/ha: 125 g ai/ha, preemergence, visual rating after approx. 10 d, 0 to 100 scale where 0 is no effect and 100 is complete control; for pest or weed control at 500 g/ha: 500 g ai/ha, visual injury vs untreated controls after approximately 10 d, read-out: Pigweed plant response rating (0 to 100 scale where 0 is no effect and 100 is complete control)
[16] = Postemergence, 31 g ai/ha, visual injury after approx. 10 d, 0 to 100 scale, 0 no effect, 100 complete control
[17] = read-out: Plant response rating, Ragweed
[18] = read-out: Plant response rating, Kochia
[19] = read-out: Plant response rating, Ryegrass, Italian
[20] = read-out: Plant response rating, Barnyardgrass
[21] = read-out: Plant response rating, Pigweed

Compound	pest or weed control at 125 g/ha [1] [%]	pest or weed control at 125 g/ha [2] [%]	pest or weed control at 125 g/ha [3] [%]	pest or weed control at 125 g/ha [4] [%]	pest or weed control at 125 g/ha [5] [%]	pest or weed control at 125 g/ha [6] [%]	Corn plant response rating (crop injury, 0 = no effect, 100 = complete kill) at 125 g/ha [7] [%]	plant injury at 125 g/ha [8] [%]	pest or weed control at 125 g/ha [9] [%]	pest or weed control at 125 g/ha [10] [%]	pest or weed control at 125 g/ha [11, 17] [%]	pest or weed control at 125 g/ha [12, 18] [%]	pest or weed control at 125 g/ha [13, 19] [%]	pest or weed control at 125 g/ha [14, 20] [%]	pest or weed control at 125 g/ha [15, 21] [%]	pest or weed control at 500 g/ha ([11]; Preemergence) [%]	pest or weed control at 500 g/ha ([12]; Preemergence) [%]	pest or weed control at 500 g/ha ([13]; Preemergence) [%]	pest or weed control at 500 g/ha ([14]; Preemergence) [%]	pest or weed control at 500 g/ha ([15]; Preemergence) [%]	other results
COc1cc([C@H]2CN(C)C(=O)[C@@H]2C(=O)Nc2cccc(F)c2F)ccc1C(F)(F)F [Compound 770]	0	40	60	0	70	0	50	0	60	30	0	0	0	90	90	–	–	–	–	–	pest or weed control at 31 g/ha [1, 16]: 0%; pest or weed control at 31 g/ha [2, 16]: 0%; pest or weed control at 31 g/ha [3, 16]: 30%; pest or weed control at 31 g/ha [4, 16]: 0%; pest or weed control at 31 g/ha [5, 16]: 60%; pest or weed control at 31 g/ha [6, 16]: 0%; Corn plant response rating (crop injury, 0 = no effect, 100 = complete kill) at 31 g/ha [7, 16]: 0%; plant injury at 31 g/ha [8, 16]: 0%; pest or weed control at 31 g/ha [9, 16]: 30%; pest or weed control at 31 g/ha [10, 16]: 0%; pest or weed control at 31 g/ha ([11]; Preemergence, 31 g ai/ha, 0 to 100 scale (0 no effect, 100 complete control), read-out: Plant response rating, Ragweed): 0%; pest or weed control at 31 g/ha ([12]; Preemergence, 31 g ai/ha, 0 to 100 scale (0 no effect, 100 complete control), read-out: Plant response rating, Kochia): 0%; pest or weed control at 31 g/ha ([13]; Preemergence, 31 g ai/ha, 0 to 100 scale (0 no effect, 100 complete control), read-out: Plant response rating, Ryegrass, Italian): 0%; pest or weed control at 31 g/ha ([14]; Preemergence, 31 g ai/ha, 0 to 100 scale (0 no effect, 100 complete control), read-out: Plant response rating, Barnyardgrass): 70%; pest or weed control at 31 g/ha ([15]; Preemergence, 31 g ai/ha, 0 to 100 scale (0 no effect, 100 complete control), read-out: Plant response rating, Pigweed): 40%
CC(F)(F)c1cccc([C@H]2CNC(=O)[C@@H]2C(=O)Nc2cccc(F)c2F)c1 [Compound 779]	20	30	60	70	80	40	80	80	90	0	20	70	40	90	40	70	80	40	90	60	–
CC(F)(F)c1cccc([C@H]2CNC(=O)[C@@H]2C(=O)Nc2ccccc2S(C)(=O)=O)c1 [Compound 780]	0	30	50	50	60	0	40	30	60	0	40	40	0	80	0	70	80	20	90	50	–
CN1C[C@H](c2cc(F)cc(F)c2)[C@@H](C(=O)Nc2ncccc2F)C1=O [Compound 783]	0	0	0	0	0	0	0	0	0	0	0	30	0	0	0	0	50	0	70	0	–
